Measured values: patent US20220048915A1 (SHANGHAI PHARMACEUTICALS HOLDING CO., LTD., priority 2018, published 2022)

Assays:
p38γ = target: T1, p38γ (Homo sapiens, UniProt P53778); assay: In vitro inhibition of p38 kinase (LANCE Ultra TR-FRET); format: biochemical; settings: read-out: Kinase in vitro IC50(nM) p38γ
T1 sequence (P53778 1-367): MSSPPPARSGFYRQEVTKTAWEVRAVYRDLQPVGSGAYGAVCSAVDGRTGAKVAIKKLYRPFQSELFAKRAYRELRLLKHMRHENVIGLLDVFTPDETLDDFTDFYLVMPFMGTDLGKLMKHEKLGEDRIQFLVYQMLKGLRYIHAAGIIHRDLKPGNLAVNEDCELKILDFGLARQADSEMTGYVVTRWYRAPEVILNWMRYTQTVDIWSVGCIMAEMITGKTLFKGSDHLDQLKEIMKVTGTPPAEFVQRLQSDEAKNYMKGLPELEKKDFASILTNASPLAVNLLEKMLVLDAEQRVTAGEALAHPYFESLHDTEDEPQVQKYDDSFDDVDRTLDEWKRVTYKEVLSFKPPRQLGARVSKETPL
Description: 10 mM of the storage solution of the test compound was taken and placed in a 96-well compound plate, and using DMSO for the compound at an initial concentration of 100×, which was then used as the first concentration and then carried out a 3-fold gradient dilution with DMSO for a total of 10 concentrations. After that, 1 μL of gradient dilutions were added to 19 μL of 1× reaction buffer to prepare 5× compound for later use. […] To the compound-free control well was added 2 μL of the following liquid: 19 μL of 1× reaction buffer with addition of 1 μL of DMSO. To the Min control well was added 2 μL of 250 mM EDTA.
1× of LANCE® Detection value Buffer was used to prepare a 2×Antibody for use, and the amount was 5 μL per well, at the same time 10 mM EDTA was prepared for later use. After the enzyme reaction was carried out for 30 minutes, 5 μL 10 mM EDTA was added to the 384-well plate and the reaction was carried out at room temperature for 5 minutes. Afterwards, 5 μL LANCE® Ultra Europium-anti-phospho-eIF4E-binding protein 1 (Thr37/46) was added to the 384-well plate and the reaction was carried out at room temperature for one hour.

p38α = p38α (Homo sapiens, UniProt Q16539); assay: as above; format: biochemical; settings: read-out: Kinase in vitro IC50(nM) p38α
BV-2 cells = assay: Inhibition of inflammation in LPS-stimulated BV-2 cells (ELISA of inflammatory factors); format: cell-based; settings: Mus musculus, 100 ng/mL LPS 4 hours; for Emax: read-out: BV-2 Max Inh. (%); for IC50: read-out: BV-2 Rf IC50
Description: Normal cultured 8th passage BV-2 cells were taken, and inoculated separately in 96-well plates at a certain cell density. The cell culture plates were cultured at 37° C. and 5% CO2 for 24 hours.
After inoculating the plate for 24 hours, the cell culture medium was removed, and then 100 μL of a 4-fold gradient dilution compound starting from 10,000 nM prepared in DMEM+10% FBS, where High control and Low control contained 0.1% DMSO without compound. With 100 μL per well, the cell culture plate was cultured at 37° C. with 5% CO2 for one hour.
The compound-containing cultures were removed. 100 ng/mL of LPS was prepared with DMEM+10% FBS culture medium, and then the compound was diluted in a 4-fold gradient from 10,000 nM with LPS-containing culture medium. In low control, the compound was replaced with 0.1% DMSO. In High control, 0.1% DMSO was prepared with culture medium without LPS. 100 μL per well, and the cell culture plates were cultured at 37° C. with 5% CO2 for 4 hours.
After 4 hours of LPS stimulation, 110 μL of the culture solution was aspirated, and centrifuged at 2000 rpm for 2 minutes. A further 90 μl of supernatant was aspirated and immediately put into −20° C. for freezing.
ELISA kits were used to detect the expression of inflammatory factors such as IL-10, TNFα, etc. The OD450 signal values were measured by microplate reader. The in vitro inhibitory activity of the compounds was calculated according to the following formula: Inhibition rate: Inhibition rate (%)=(signal value of control−signal value of administration)/(high signal value of control−low signal value of control)×100%. And according to the inhibition rate of each concentration, Graphpad Prism 5.0 was used to curve fit the […] signal values at each concentration and calculate the corresponding IC50, which is shown in Table 1.

p38β = p38β (Homo sapiens, UniProt Q15759); assay: In vitro inhibition of p38 kinase (LANCE Ultra TR-FRET); format: biochemical; settings: read-out: Kinase in vitro IC50(nM) p38β
[1] = Pharmacokinetic properties in mice; format: in vivo, ICR mice; settings: for absorption compared with the positive compound VX-745 at the same dose: 10 mg/kg; for Thalf (iv): iv 3 mg/kg; for Cmax / MRT / Tmax: male, ICR, mouse, plasma; for Cmax / MRT / Tmax / AUClast (po): po 10 mg/kg; for BA: po 10 mg/kg vs iv 3 mg/kg; for AUClast (po): 5-1440 minutes
Description: Forty-eight male ICR mice, weighing 18-22 g (provided by Shanghai Xipuerbikai Laboratory Animal Co., Ltd, Certificate No.: 20130016008116). The mice were […] for 12-16 hours before the experiment but water was allowed.
Blood samples were collected from the fundus vein of mice before and at 2, 5, 15, 30, 60, 90, 120, 240, 480, 600, and 1440 minutes of the administration, respectively.
Blood samples were collected from the fundus vein of mice before and at 5, 15, 30, 60, 90, 120, 240, 480 and 1440 minutes of administration, respectively.
2-3 time points were taken for each mouse. The mice were sacrificed at 5, 15, 30, 60 and 1440 minutes after the administration (3 mice per time point), and the brains were taken, rinsed with saline, dried on filter paper and weighed.
Blood samples were centrifuged at 8000 rpm for 5 minutes, and supernatant plasma was taken. To 50 μL of plasma samples was added 300 μL of acetonitrile containing internal standard (propranolol, 25 ng/mL) to precipitate the protein. After vortexing for 10 minutes and centrifuging at 6000 g and 4° C. for 10 minutes, the supernatant was taken and placed in a 96-well plate for determination of drug concentration in plasma by UPLC/MS-MS.

Sequence of p38α (Q16539 whole entry): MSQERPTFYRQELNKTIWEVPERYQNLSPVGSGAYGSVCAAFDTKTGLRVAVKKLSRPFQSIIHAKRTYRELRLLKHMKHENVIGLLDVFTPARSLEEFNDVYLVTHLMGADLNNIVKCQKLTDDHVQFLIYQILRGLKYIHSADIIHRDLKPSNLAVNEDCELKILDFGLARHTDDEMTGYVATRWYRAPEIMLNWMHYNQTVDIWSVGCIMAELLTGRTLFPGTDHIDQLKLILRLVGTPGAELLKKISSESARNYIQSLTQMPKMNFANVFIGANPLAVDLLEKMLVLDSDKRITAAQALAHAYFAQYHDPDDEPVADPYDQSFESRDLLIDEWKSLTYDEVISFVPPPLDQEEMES
Sequence of p38β (Q15759 whole entry): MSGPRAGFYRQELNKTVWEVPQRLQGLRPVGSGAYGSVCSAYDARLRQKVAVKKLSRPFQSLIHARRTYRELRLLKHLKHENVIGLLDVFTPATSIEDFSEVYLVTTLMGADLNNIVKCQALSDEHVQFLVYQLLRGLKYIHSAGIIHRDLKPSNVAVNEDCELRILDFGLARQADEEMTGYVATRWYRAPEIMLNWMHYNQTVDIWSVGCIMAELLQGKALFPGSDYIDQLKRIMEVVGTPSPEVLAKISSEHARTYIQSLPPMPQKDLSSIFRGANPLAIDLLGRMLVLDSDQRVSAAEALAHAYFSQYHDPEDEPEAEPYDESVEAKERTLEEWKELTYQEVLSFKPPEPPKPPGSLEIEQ

| IC50 (p38γ) [nM] | IC50 (p38α) [nM] | IC50 (BV-2 cells) [nM] | IC50 (p38β) [nM] | absorption compared with the positive compound VX-745 at the same dose [1] | Thalf (iv) [1] [h] | Cmax [1] [ng/mL] | MRT [1] [h] | Tmax [1] [h] | BA [1] [%] | AUClast (po) [1] | SMILES | Emax (BV-2 cells) [%] |
| --- | --- | --- | --- | --- | --- | --- | --- | --- | --- | --- | --- | --- |
| > 3330 | 49.3 | 94.3 | 389 |  |  |  |  |  |  |  | O=c1ncn2nc(Oc3ccc(F)c(Br)c3)ccc2c1-c1c(Cl)cccc1Cl [Compound I-5, 2-(3-bromo-4-fluorophenoxy)-5-(2,6-dichlorophenyl)-6H-pyrimido[1,6-b]pyridazin-6-one] | 44 |
| > 3330 | 13.6 | 16.1 | 109 |  |  |  |  |  |  |  | O=c1ncn2nc(Oc3ccc(Cl)cc3F)ccc2c1-c1c(Cl)cccc1Cl [Compound I-6, 2-(4-chloro-2-fluorophenoxy)-5-(2,6-dichlorophenyl)-6H-pyrimido[1,6-b]pyridazin-6-one] | 44.7 |
| > 3330 | 60.6 | 75.6 | 434 |  |  |  |  |  |  |  | O=c1ncn2nc(Oc3cccc(Br)c3)ccc2c1-c1c(Cl)cccc1Cl [Compound I-10, 2-(3-bromophenoxy)-5-(2,6-dichlorophenyl)-6H-pyrimido[1,6-b]pyridazin-6-one] | -60 |
| > 3330 | 32.8 | 176 | 302 |  |  |  |  |  |  |  | O=c1ncn2nc(Oc3cccc(Cl)c3Cl)ccc2c1-c1c(Cl)cccc1Cl [Compound I-12, 2-(2,3-dichlorophenoxy)-5-(2,6-dichlorophenyl)-6H-pyrimido[1,6-b]pyridazin-6-one] | 49.5 |
| > 3330 | 41.3 | 132 | 263 |  |  |  |  |  |  |  | O=c1ncn2nc(Oc3ccc(Cl)cc3Br)ccc2c1-c1c(Cl)cccc1Cl [Compound I-15, 2-(2-bromo-4-chlorophenoxy)-5-(2,6-dichlorophenyl)-6H-pyrimido[1,6-b]pyridazin-6-one] | 46 |
| > 3330 | 25.9 | 6.19 | 109 |  |  |  |  |  |  |  | O=c1ncn2nc(Oc3cc(Br)ccc3Cl)ccc2c1-c1c(Cl)cccc1Cl [Compound I-16, 2-(5-bromo-2-chlorophenoxy)-5-(2,6-dichlorophenyl)-6H-pyrimido[1,6-b]pyridazin-6-one] | 44.2 |
| > 3330 | 34.8 | 95.8 | 316 |  |  |  |  |  |  |  | O=c1ncn2nc(Oc3ccccc3Br)ccc2c1-c1c(Cl)cccc1Cl [Compound I-17, 2-(2-bromophenoxy)-5-(2,6-dichlorophenyl)-6H-pyrimido[1,6-b]pyridazin-6-one] | -60 |
| > 3330 | 14.8 | 8.58 | 97.1 |  |  |  |  |  |  |  | O=c1ncn2nc(Oc3ccc(F)cc3Cl)ccc2c1-c1c(Cl)cccc1Cl [Compound I-18, 2-(2-chloro-4-fluorophenoxy)-5-(2,6-dichlorophenyl)-6H-pyrimido[1,6-b]pyridazin-6-one] | 50.6 |
| > 3330 | 17.6 | 23.3 | 96 |  |  |  |  |  |  |  | O=c1ncn2nc(Oc3ccc(Cl)cc3Cl)ccc2c1-c1c(Cl)cccc1Cl [Compound I-20, 2-(2,4-dichlorophenoxy)-5-(2,6-dichlorophenyl)-6H-pyrimido[1,6-b]pyridazin-6-one] | -60 |
| > 3330 | 27.7 | 19.2 | 226 |  |  |  |  |  |  |  | O=c1ncn2nc(Oc3cc(F)ccc3F)ccc2c1-c1c(Cl)cccc1Cl [Compound I-21, 5-(2,6-dichlorophenyl)-2-(2,5-difluorophenoxy)-6H-pyrimido[1,6-b]pyridazin-6-one] | 51.3 |
| > 3330 | 19.7 |  | 403 | better | 3.96 | 891 | 4.86 | 2 | 119.3 | 4016 (h)*(ng/mL) | O=c1ncn2nc(Oc3ccc(F)cc3F)ccc2c1-c1cc(Cl)ccc1Cl [Compound I-46, 5-(2,5-dichlorophenyl)-2-(2,4-difluorophenoxy)-6H-pyrimido[1,6-b]pyridazin-6-one] |  |
| > 3330 | 34.2 |  | 1090 | better | 1.93 | 928 | 3.05 | 0.83 | 84.9 | 3107 (h)*(ng/mL) | Cc1ccccc1-c1c(=O)ncn2nc(Oc3ccc(F)cc3F)ccc12 [Compound I-50, 2-(2,4-difluorophenoxy)-5-(o-methylphenyl)-6H-pyrimido[1,6-b]pyridazin-6-one] |  |
| > 3330 | 19.6 |  | 479 |  |  |  |  |  |  |  | O=c1ncn2nc(Oc3ccc(F)cc3F)ccc2c1-c1ccc(Cl)cc1Cl [Compound I-56, 5-(2,4-dichlorophenyl)-2-(2,4-difluorophenoxy)-6H-pyrimido[1,6-b]pyridazin-6-one] |  |
| > 3330 | 22.7 |  | 614 |  |  |  |  |  |  |  | O=c1ncn2nc(Oc3ccc(F)cc3F)ccc2c1-c1c(F)cc(F)cc1F [Compound I-57, 5-(2,4,6-trifluorophenyl)-2-(2,4-difluorophenoxy)-6H-pyrimido[1,6-b]pyridazin-6-one] |  |
| > 3330 | 137 |  | > 3330 |  |  |  |  |  |  |  | O=c1ncn2nc(Oc3ccc(F)cc3F)ccc2c1-c1ccc(Cl)c(Cl)c1 [Compound I-58, 5-(3,4-dichlorophenyl)-2-(2,4-difluorophenoxy)-6H-pyrimido[1,6-b]pyridazin-6-one] |  |
| > 3330 | 81.3 |  | 1220 |  |  |  |  |  |  |  | O=c1ncn2nc(Oc3ccc(F)cc3F)c(-c3ccncc3)cc2c1-c1c(Cl)cccc1Cl [Compound I-59, 5-(2,6-dichlorophenyl)-2-(2,4-difluorophenoxy)-3-(pyridin-4-yl)-6H-pyrimido[1,6-b]pyridazin-6-one] |  |
| > 3330 | 11.7 |  | 32.7 |  |  |  |  |  |  |  | O=c1ncn2nc(Oc3ccc(F)cc3F)c(N3CCOCC3)cc2c1-c1c(Cl)cccc1Cl [Compound I-61, 5-(2,6-dichlorophenyl)-2-(2,4-difluorophenoxy)-3-morpholinyl-6H-pyrimido[1,6-b]pyridazin-6-one] |  |
